Data reported in paper PMC9895061 (Signal Transduction and Targeted Therapy, 2023).
Where two headings read alike, the source gives them in different places.

How the values were obtained:
PRDX3 = biological target: T1, PRDX3 (Homo sapiens, UniProt P30048); assay: Trx-TrxR-NADPH coupling peroxiredoxin activity assay, PRDX3; assay type: biochemical
T1 sequence (P30048 62-256): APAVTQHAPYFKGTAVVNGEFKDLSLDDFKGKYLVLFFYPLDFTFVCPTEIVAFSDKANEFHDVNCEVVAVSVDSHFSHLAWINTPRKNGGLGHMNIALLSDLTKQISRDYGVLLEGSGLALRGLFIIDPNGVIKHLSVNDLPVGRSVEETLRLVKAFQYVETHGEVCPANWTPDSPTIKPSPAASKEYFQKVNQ

NCM460 cells = assay: ROS measurement by DCFH-DA staining and flow cytometry, NCM460; assay type: cell-based, human; settings: 2 μM, 24 h
Procedure: (§1) […]. DCFH-DA was deacetylated by intracellular esterase to a non-fluorescent compound, which was later oxidized by intracellular ROS to the fluorescent DCF. DCF fluorescence was detected using flow cytometer and data was analyzed using FlowJo software (version 10.4).
b ROS measurement of NCM460 cells with compounds treatment. […].

SW620 cells = assay: CCK-8 proliferation assay, SW620; assay type: cell-based; settings: Homo sapiens, SW-620; 24 h treatment
Procedure: (§2) SW620 or HCT116 cells were seeded into 96-well plate overnight at 5000 cells per well or 4000 cells per well respectively. […] Cell numbers were assessed using the CCK-8 reagent at OD 450. The IC50 values were calculated by fitting the data points with the dose-response function in GraphPad.

HCT116 cells [1] = assay: CCK-8 proliferation assay, HCT116; assay type: cell-based; settings: Homo sapiens, HCT-116; 24 h treatment
Procedure: as §2

PRDX1 [2] = biological target: T2, PRDX1 (Homo sapiens, UniProt Q06830); assay: Determination of Kinact and Ki for inhibition of PRDX1's peroxidase activity; assay type: biochemical
T2 sequence (Q06830 1-199): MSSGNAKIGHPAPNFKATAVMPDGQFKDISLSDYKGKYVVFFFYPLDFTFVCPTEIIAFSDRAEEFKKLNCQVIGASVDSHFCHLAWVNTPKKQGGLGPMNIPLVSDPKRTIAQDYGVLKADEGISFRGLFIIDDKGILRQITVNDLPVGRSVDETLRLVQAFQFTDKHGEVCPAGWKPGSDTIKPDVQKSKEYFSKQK

HCT116 cells [3] = assay: ROS measurement by DCFH-DA staining and flow cytometry, HCT116; assay type: cell-based, human; settings: 2 μM, 24 h
Procedure: as §1
g, h ROS measurement of SW620 (g) and HCT116 (h) cells with compounds treatment. […].

nude mice = assay: Chronic toxicity test, routine blood test; settings: 2 mg/kg, 5 days per week for two weeks
SW620-gNS xenografts = assay: SW620-gNS xenograft tumor growth in nude mice; settings: 2 mg/kg intraperitoneally, 5 days per week for 2 weeks
[4] = biological target: T3, recombinant wild type PRDX1 (Homo sapiens, UniProt Q06830); assay: Surface plasmon resonance (SPR) assay; assay type: binding
T3 sequence (Q06830 1-199): T2 sequence (Q06830 1-199)

PRDX1 [5] = biological target: T2, PRDX1; assay: Trx-TrxR-NADPH coupling peroxiredoxin activity assay, PRDX1; assay type: biochemical

SMILES	IC50 (PRDX3)	intracellular ROS positive rate, NCM460 (NCM460 cells)	IC50 (SW620 cells)	IC50 (HCT116 cells [1])	Ki (PRDX1 [2])	ROS-positive rate, HCT116 (HCT116 cells [3])	count and proportion of monocyte and neutrophil, routine blood test (in words) (nude mice)	tumor progression of SW620-gNS xenografts (in words) (SW620-gNS xenografts)	Kd [4]	IC50 (PRDX1 [5])	inhibition of the peroxidase activity of PRDX3 (in words) (PRDX3; recombinant PRDX3)	IC50 (PRDX3; recombinant PRDX3, 1.5 h incubation, mean ± SEM, triplicate, read-out: IC50 against the peroxidase activity of PRDX3)
CC1=C(O)C(=O)C=C2C1=CC=C1[C@@]2(C)CC[C@@]2(C)[C@@H]3C[C@](C)(C(=O)O)CC[C@]3(C)CC[C@]12C [Celastrol, reference compound]	6670 ± 520 nM	26.5%	690 nM	894 nM	950 ± 86 nM	88.4%	higher than the reference intervals	suppressed the overall tumor progression	360 nM	290 ± 10 nM	–	–
COC(=O)[C@H](C)NC(=O)N[C@]1(C)CC[C@]2(C)CC[C@]3(C)C4=CC=C5C(=CC(=O)C(O)=C5C)[C@]4(C)CC[C@@]3(C)[C@@H]2C1 [19-048, Methyl (((2R,4aS,6aS,12bR,14aS,14bR)-10-hydroxy-2,4a,6a,9,12b,14a-hexamethyl-11-oxo-1,2,3,4,4a,5,6,6a,11,12b,13,14,14a,14b-tetradecahydropicen-2-yl)carbamoyl)-L-alaninate]	–	29.13%	528 nM	816 nM	–	91.7%	–	suppressed the overall tumor progression	–	–	no obvious inhibition	> 100000 nM
